Data: patent publication US20260193293A1, “PEPTIDES CAPABLE OF INHIBITING PROTEIN-PROTEIN INTERACTIONS AT GABAB1A SUBUNIT AND USES THEREOF” (UNIVERSITY OF COPENHAGEN, priority 2022, published 2026)
Where two headings read alike, the source gives them in different places. Non-standard residues stand in square brackets, D forms with d. Residues, ends and D or L forms follow the SMILES beside them. NMeW = CN[C@@H](Cc1c[nH]c2ccccc12)C(=O)O; Phe(4-NH2) = Nc1ccc(C[C@H](N)C(=O)O)cc1; Phe(4-F) = N[C@@H](Cc1ccc(F)cc1)C(=O)O

Biological target: Sushi domains (SD1/2) protein
Assay: Fluorescence polarization (FP) competition assay with AJAP-1probe, calculated Ki
Format: binding
Conditions: read-out: Ki (nM) mean ± SEM
Procedure, shortened: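 Competition against 25 nM TAMRA-labelled peptide probe binding SD1/2, in PBS pH 7.4 with 1% BSA at rt, read at 530/580 nm. IC50 from sigmoidal dose-response fits, at least triplicate; Ki calculated from IC50 using probe Kd from saturation binding.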

[1] = Table 5, elongation and truncation scan of AJAP-1 binding epitope
[2] = Table 16, ncAAs incorporated peptides

CC[C@H](C)[C@H](NC(=O)[C@H](Cc1c[nH]c2ccccc12)NC(=O)[C@H](CC(=O)O)NC(=O)[C@H](CC(=O)O)NC(=O)[C@H](CC(=O)O)NC(=O)[C@H](CCC(=O)O)NC(=O)[C@H](CCCNC(=N)N)NC(=O)[C@H](CCCNC(=N)N)NC(=O)[C@H](CCCNC(=N)N)NC(=O)[C@H](CCCNC(=N)N)NC(=O)[C@H](CCCNC(=N)N)NC(C)=O)C(=O)N[C@@H](CC(=O)O)C(=O)N[C@@H](Cc1c[nH]c2ccccc12)C(=O)NCC(=O)N1CCC[C@H]1C(=O)N[C@H](C(=O)N[C@@H](CO)C(=O)N[C@@H](CC(=O)O)C(=O)N[C@@H](CC(=O)O)C(=O)N[C@@H](CC(=O)O)C(N)=O)[C@@H](C)O (Ac-RRRRREDDDWIDWGPTSDDD-NH2)
Ki (Table 14, CPPs tagged peptides): 32 ± 1 nM

CC[C@H](C)[C@H](NC(=O)[C@H](Cc1ccccc1)NC(=O)[C@H](CCC(=O)O)NC(=O)[C@@H](NC(=O)[C@H](CCC(=O)O)NC(=O)[C@@H](NC(=O)[C@@H](NC(C)=O)[C@@H](C)O)[C@@H](C)O)[C@@H](C)O)C(=O)N[C@@H](C)C(=O)N[C@@H](Cc1c[nH]c2ccccc12)C(=O)NCC(=O)N1CCC[C@H]1C(=O)N[C@H](C(=O)NCC(=O)N[C@@H](CC(=O)O)C(=O)N[C@@H](CCC(=O)O)C(N)=O)[C@@H](C)O (Ac-TTETEFIAWGPTGDE-NH2)
Ki (Table 3, SPOT hit validation and previously reported peptides): 73 ± 1 nM

CC(=O)N[C@@H](CCC(=O)O)C(=O)N[C@@H](CC(=O)O)C(=O)N[C@@H](CC(=O)O)C(=O)N[C@@H](CO)C(=O)N[C@@H](CC(=O)O)C(=O)N[C@H](C(=O)N[C@@H](Cc1c[nH]c2ccccc12)C(=O)N(C)[C@@H](Cc1c[nH]c2ccccc12)C(=O)NCC(=O)NCC(=O)N[C@@H](C)C(=O)N[C@@H](CC(=O)O)C(=O)N[C@H](C(=O)N[C@@H](CC(=O)O)C(N)=O)[C@@H](C)O)C(C)C [EDDSDVW(N-Me-W)GGADTD] (Ac-EDDSDVW[NMeW]GGADTD-NH2)
Ki (Table 7, Ala-, D-amino acids and N-methylation scans of APPWT): 1380 ± 16 nM

CC[C@H](C)[C@H](NC(=O)[C@H](Cc1ccccc1)NC(=O)[C@H](CCC(=O)O)NC(=O)[C@@H](NC(C)=O)[C@@H](C)O)C(=O)N[C@@H](C)C(=O)N[C@@H](Cc1c[nH]c2ccccc12)C(=O)NCC(=O)N1CCC[C@H]1C(=O)N[C@H](C(=O)NCC(=O)N[C@@H](CC(=O)O)C(=O)N[C@@H](CCC(=O)O)C(=O)N[C@@H](CC(=O)O)C(N)=O)[C@@H](C)O [TEFIAWGPTGDED] (Ac-TEFIAWGPTGDED-NH2)
Ki [1]: 102 ± 4 nM

EDDS(Fphe)VWWGGADTD (Ac-EDDS[Phe(4-F)]VWWGGADTD-NH2)
Ki [2]: 117 ± 2 nM

CC[C@H](C)[C@H](NC(=O)[C@H](Cc1ccccc1)NC(=O)[C@H](CCC(=O)O)NC(=O)[C@@H](NC(=O)[C@H](CCC(=O)O)NC(=O)[C@@H](NC(=O)[C@@H](NC(=O)[C@@H]1CCCN1C(C)=O)[C@@H](C)O)[C@@H](C)O)[C@@H](C)O)C(=O)N[C@@H](C)C(=O)N[C@@H](Cc1c[nH]c2ccccc12)C(=O)NCC(=O)N1CCC[C@H]1C(=O)N[C@H](C(=O)NCC(=O)N[C@@H](CC(=O)O)C(=O)N[C@@H](CCC(=O)O)C(=O)N[C@@H](CC(=O)O)C(N)=O)[C@@H](C)O (Ac-PTTETEFIAWGPTGDED-NH2)
Ki [1]: 30 ± 0.5 nM

EDDSDVWW(Aphe)GADTD (Ac-EDDSDVWW[Phe(4-NH2)]GADTD-NH2; SMILES CC(=O)N[C@@H](CCC(=O)O)C(=O)N[C@@H](CC(=O)O)C(=O)N[C@@H](CC(=O)O)C(=O)N[C@@H](CO)C(=O)N[C@@H](CC(=O)O)C(=O)N[C@H](C(=O)N[C@@H](Cc1c[nH]c2ccccc12)C(=O)N[C@@H](Cc1c[nH]c2ccccc12)C(=O)N[C@@H](Cc1ccc(N)cc1)C(=O)NCC(=O)N[C@@H](C)C(=O)N[C@@H](CC(=O)O)C(=O)N[C@H](C(=O)N[C@@H](CC(=O)O)C(N)=O)[C@@H](C)O)C(C)C)
Ki [2]: 102 ± 1 nM

CC[C@H](C)[C@H](NC(=O)[C@H](C)NC(=O)[C@H](Cc1c[nH]c2ccccc12)NC(=O)[C@@H]1CCCN1C(=O)[C@H](Cc1ccc(O)cc1)NC(C)=O)C(=O)N[C@H](C(=O)N[C@@H](Cc1c[nH]c2ccccc12)C(=O)NCC(=O)N1CCC[C@H]1C(=O)N[C@H](C(=O)N[C@H](C(=O)N[C@@H](CO)C(=O)N[C@@H](CCCNC(=N)N)C(=O)N[C@@H](CCC(=O)O)C(=O)N[C@@H](CC(=O)O)C(=O)NCC(N)=O)C(C)C)[C@@H](C)O)C(C)C (Ac-YPWAIVWGPTVSREDG-NH2)
Ki (Table 6, elongation and truncation scan of PIANP binding epitope): 433 ± 2 nM
